From patent US20250051263A1, “NOVEL IONIZABLE LIPIDS AND LIPID NANOPARTICLES AND METHODS OF USING THE SAME” (Sail Biomedicines, Inc., priority 2021, published 2025)

Columns and labels:
[1] = TNS (pKa) assay, apparent LNP pKa; type: physicochemical; conditions: for pKa (TNS): Example 5 LNP lipid:DOPE:Plant Cholesterol:DMPE-PEG2k 35:16:46.5:2.5, FLUC/EPO 1:1 mRNA, N:P 6:1
Method: (protocol adapted from: A Novel Amino Lipid Series for mRNA Delivery: Improved Endosomal Escape and Sustained Pharmacology and Safety in Non-human Primates, Sabnis, Staci et al., Molecular Therapy, Volume 26, Issue 6, 1509-1519) 20 buffers (10 mM sodium phosphate, 10 mM sodium borate, 10 mM sodium citrate, and 150 mM sodium chloride, in Distilled Water) of unique pH values ranging from 3.0-12.0 were prepared using 1M sodium hydroxide and 1M hydrochloric acid. 3.25 uL of LNPs (0.04 mg/mL mRNA, in PBS) were incubated with 2 μL of TNS reagent (0.3 mM, in DMSO) and 90 μL of buffer for each pH value (described above) in a 96-well black-walled plate. Each pH condition was performed in triplicate wells. The TNS fluorescence was measured using a Biotek Cytation Plate reader at excitation/emission wavelengths of 321/445 nm. The fluorescence values were then plotted and fit using a 4-parameter sigmoid curve. From the fit, the pH value yielding the half-maximal fluorescence was calculated and reported as the apparent LNP pKa value.
For pKa measurement, a […] assay was conducted according to those described in Sabnis et al., Molecular Therapy, 26(6):1509-19), which is incorporated herein by reference in its entirety. Briefly, 20 buffers (10 mM sodium phosphate, 10 mM sodium borate, 10 mM sodium citrate, and 150 mM sodium chloride, in distilled Water) of unique pH values ranging from 3.0-12.0 were prepared using 1M sodium hydroxide and 1M hydrochloric acid. 3.25 μL of a LNP composition (0.04 mg/mL mRNA, in PBS) was incubated with 2 μL of TNS reagent (0.3 mM, in DMSO) and 90 μL of buffer for each pH value (described above) in a 96-well black-walled plate. Each pH condition was performed in triplicate wells. The TNS fluorescence was measured using a Biotek Cytation Plate reader at excitation/emission wavelengths of 321/445 nm. The fluorescence values were then plotted and fit using a 4-parameter sigmoid curve. From the fit, the pH value yielding the half-maximal fluorescence was calculated and reported as the apparent LNP pKa value.

Balb/c mice [2] = test: In-vivo bioluminescent imaging after IV injection of Fluc mRNA LNP; conditions: IV; for Bioluminescence (IV) Liver / Bioluminescence (IV) Lung / Bioluminescence (IV) Spleen / Bioluminescence (IV) Whole Body / Spleen: Liver Ratio: Example 5 LNP (DOPE 35:16:46.5:2.5), 5 μg FLUC + 5 μg EPO; for Bioluminescence (IV) Liver / Bioluminescence (IV) Lung / Bioluminescence (IV) Spleen / Bioluminescence (IV) Whole Body / Bioluminescence Liver / Bioluminescence Lung / Bioluminescence Spleen: 4-6 hours post-dose; for Spleen: Liver Ratio: ratio of bioluminescence; for Bioluminescence Liver / Bioluminescence Lung / Bioluminescence Spleen: 5 ug Fluc+5 ug EPO mRNA
Method: (§1) 8-9 week old female Balb/c mice are utilized for bioluminescence-based ionizable lipid screening efforts. Mice are obtained from Jackson Laboratories (JAX Stock: 000651) and allowed to acclimate for one week prior to manipulations. Animals are placed under a heat lamp for a few minutes before introducing them to a restraining chamber. The tail is wiped with alcohol pads (Fisher Scientific) and 100 μL of a lipid nanoparticle composition descrbed above containing 10 ug total mRNA (5 ug Fluc+5 ug EPO) is injected intravenously using a 29 G insulin syringe (Covidien). Any resulting bleeding is stemmed using a sterile gauze pad (Fisher Scientific) and animals are placed back into their home cage. 4-6 hours post-dose, animals are injected with 200 μL of 15 mg/mL D-Luciferin (GoldBio) and placed in an isoflurane induction chamber set to deliver 2.5% isoflurane delivered at an oxygen flow rate of 1-2 liters per min. After 5 minutes of isoflurane exposure, mice are placed in set nose cones inside the IVIS Lumina LT imager (PerkinElmer). LivingImage software is utilized for imaging. Whole body bio-luminescence is captured at auto-exposure after which animals are removed from the IVIS and placed into a CO2 chamber for euthanasia. Cardiac puncture is performed on each animal after placing it in dorsal recumbency, and blood collection is performed using a 25 G insulin syringe (BD). Blood is collected in Lithium-Heparin coated tubes (Fisher Scientific) and immediately placed on ice. Once all blood samples are collected, tubes are spun at 2000 G for 10 minutes using a tabletop centrifuge and plasma is aliquoted into individual Eppendorf tubes (Fisher Scientific) and stored at −80 C for subsequent EPO quantification. EPO levels in plasma are determined using EPO MSD kit (Meso Scale Diagnostics).
(§2) 8-9 week old female Balb/c mice were utilized for bioluminescence-based ionizable lipid screening efforts. Mice were obtained from Jackson Laboratories (JAX Stock: 000651) and allowed to acclimate for one week prior to manipulations. Animals were placed under a heat lamp for a few minutes before introducing them to a restraining chamber. The tail was wiped with alcohol pads (Fisher Scientific) and, for each LNP composition descrbed above, 100 μL of a lipid nanoparticle composition descrbed above containing 10 μg total mRNA (5 μg Fluc+5 μg EPO, 5 μg Fluc+5 μg Cre, or 5 μg EGFP) was injected intravenously using a 29 G insulin syringe (Covidien).
(§3) 4-6 hours post-dose, animals were injected with 200 μL of 15 mg/mL D-Luciferin (GoldBio), and placed in set nose cones inside the IVIS Lumina LT imager (PerkinElmer). LivingImage software was utilized for imaging. Whole body bio-luminescence was captured at auto-exposure after which animals are removed from the IVIS and placed into a CO2 chamber for euthanasia. Cardiac puncture was performed on each animal after placing it in dorsal recumbency, and blood collection was performed using a 25 G insulin syringe (BD). Once all blood samples were collected, tubes are spun at 2000 G for 10 minutes using a tabletop centrifuge and plasma was aliquoted into individual Eppendorf tubes (Fisher Scientific) and stored at −80° C. for subsequent EPO quantification. EPO levels in plasma were determined using EPO MSD kit (Meso Scale Diagnostics).

Balb/c mice [3] = test: EPO levels in plasma by EPO MSD kit after IV injection of EPO mRNA LNP; type: in vivo
Method: as §1, §2, §3

[4] = Example 5 LNP (DOPE 35:16:46.5:2.5), 5 μg FLUC + 5 μg EPO
[5] = LNP lipid:DOPE:Plant Chol.:DMPE-PEG2k 35:16:46.5:2.5 (Table 1)
[6] = LNP lipid:DSPC:Plant Chol.:DMPE-PEG2k 50:10:38.5:1.5

Row | Compound | pKa (TNS) [1] | Bioluminescence (IV) Liver (Balb/c mice [2]) | Bioluminescence (IV) Lung (Balb/c mice [2]) | Bioluminescence (IV) Spleen (Balb/c mice [2]) | Bioluminescence (IV) Whole Body (Balb/c mice [2]) | Spleen: Liver Ratio (Balb/c mice [2]) | hEPO (Balb/c mice [3]; [4]) | pKa ([1]; LNP ionizable lipid:DOPE:Plant Chol.:DMPE-PEG2k 35:16:46.5:2.5 (Table 1)) | pKa ([1]; LNP ionizable lipid:DSPC:Plant Chol.:DMPE-PEG2k 50:10:38.5:1.5) | Bioluminescence Liver (Balb/c mice [2]; [5]) | Bioluminescence Lung (Balb/c mice [2]; [5]) | Bioluminescence Spleen (Balb/c mice [2]; [5]) | Bioluminescence Liver (Balb/c mice [2]; [6]) | Bioluminescence Lung (Balb/c mice [2]; [6]) | Bioluminescence Spleen (Balb/c mice [2]; [6]) | hEPO (Balb/c mice [3]; LNP lipid:DOPE:Plant Chol.:DMPE-PEG2k 35:16:46.5:2.5 (Table 1), 5 ug Fluc+5 ug EPO mRNA) | hEPO (Balb/c mice [3]; LNP lipid:DSPC:Plant Chol.:DMPE-PEG2k 50:10:38.5:1.5, 5 ug Fluc+5 ug EPO mRNA)
1 | CCCCCCCCCCCOC(=O)CCCCCN(CCCCCCCC(=O)OC(CCCCCCCC)CCCCCCCC)CCNC(=O)CCCC(=O)NCCN(CCCCCCCC(=O)OC(CCCCCCCC)CCCCCCCC)CCCCCC(=O)OCCCCCCCCCCC [Compound 2273, 1-octylnonyl 8-[2-[[5-[2-[[8-(1-octylnonoxy)-8-oxo-octyl]-(6-oxo-6-undecoxy-hexyl)amino]ethylamino]-5-oxo-pentanoyl]amino]ethyl-(6-oxo-6-undecoxyhexyl)amino]octanoate] | 6.57 | 7.6E+06 | 1.0E+04 | 5.7E+05 | 4.2E+07 | 0.080 | 8.5E+05 |  |  |  |  |  |  |  |  |  | 
2 | CCCCCCCCCCCOC(=O)CCCCCN(CCCCCCCC(=O)OC(CCCCCCCC)CCCCCCCC)CCNC(=O)CCC(=O)NCCN(CCCCCCCC(=O)OC(CCCCCCCC)CCCCCCCC)CCCCCC(=O)OCCCCCCCCCCC [Compound 2221, 1-octylnonyl 8-[2-[[4-[2-[[8-(1-octylnonoxy)-8-oxo-octyl]-(6-oxo-6-undecoxy-hexyl)amino]ethylamino]-4-oxo-butanoyl]amino]ethyl-(6-oxo-6-undecoxy-hexyl)amino]octanoate] | 6.36 | 3.0E+06 | 1.9E+03 | 2.7E+05 | 2.2E+07 | 0.082 | 4.7E+05 | 6.36 | 6.29 | 3.05E+06 | 1.88E+03 | 2.68E+05 | 2.94E+06 | 5.09E+03 | 1.23E+06 | 4.71E+05 | 4.46E+05
